Measurements published in patent publication US20260053764A1, “COMPOSITION FOR PREVENTING DETERIORATION IN COGNITIVE FUNCTION AND/OR IMPROVING COGNITIVE FUNCTION” (PHARMA FOODS INTERNATIONAL CO., LTD., priority 2020, published 2026).

Test system: health-associated QOL in a human
Test: SF-36 health-associated QOL assessment in clinical tests A and B
Format: in vivo
Design: key to General health / Vitality / Mental health: SF-36 subscale score; higher score = better health state
Conditions: for Everyday role function (mental) / Everyday role function (physical) / General health / Mental health / Physical function / Vitality: mean ± SD
From the text: SF-36 is known as a QOL assessment method associated with health, wherein SF-36 (MOS 36-Item Short-Form Health Survey) is a self-report type health state questionnaire that can rate eight health concepts (physical function, everyday role function (physical), body pain, general health, vitality, social function, everyday role function (mental) and mental health) as scores. A high score of each health concept (subscale) in SF-36 is interpreted as shown below. • Physical function . . . Capable of carrying out every type of activity including vigorous activity. • Everyday role function (physical) . . . There was no physical problem when carrying out work or normal activity during the past month. • Body pain . . . There was no body pain at all during the past month and usual work was not interfered by body pain at all. • General health . . . Health state is very good. • Vitality . . . Always full of energy during the past month. • Social life function . . . The usual social interactions with family, friends, neighbors and other companions were not at all interfered by any physical or psychological reason. • Everyday role function (mental) . . . There was no psychological problem when carrying out work or normal activity during the past month. • Mental health . . . The subject was in a calm, happy and peaceful mood during the past month.
Two types of placebo-controlled randomized double-blind two-group parallel comparison tests were carried out as clinical tests. […] Specifically, capsules comprising 100 mg of dextrin per capsule were used as the placebo food.
The screening examination was carried out to select 60 subjects for each test (a total of 120 subjects). MMSE (Mini Mental State Examination) is an examination for assessing the degree of progression of dementia or the like based on the score thereof with 30 as the perfect score, wherein dementia is suspected with a score of 23 or lower.
The total of 120 subjects were randomly divided into test A active group, test A placebo group, test B active group and test B placebo group with 30 subjects in each group. Each subject of the test A active group ingested two capsules of the active food, each subject of the test A placebo group ingested two capsules of the placebo food, each subject of the test B active group ingested one capsule of the active food and each subject of the test B placebo group ingested one capsule of the placebo food.
Each subject followed the schedule shown in the table below and ingested one or two of the assigned capsules together with water for 12 weeks from two weeks after the initial screening examination. All subjects had no particular instruction during the ingestion period and freely took their meals.
In addition, SF-36 was practiced as health-associated QOL assessment. Regarding SF-36, examination was carried out a total of four times, which are before starting test food ingestion, after four weeks of ingestion, after eight weeks of ingestion and after twelve weeks of ingestion.

[1] = test A 200 mg, before ingestion
[2] = test B 100 mg, before ingestion

In the case of `NCCCC(=O)O` [GABA, γ-aminobutyric acid], the “Body pain: difference between active food and placebo food groups” value (test A 200 mg, 4 W) is reported as −2.1, the “Everyday role function (mental): difference between active food and placebo food groups” value (test A 200 mg, 4 W) is reported as 1.9 and the “Everyday role function (physical): difference between active food and placebo food groups” value (test A 200 mg, 4 W) is reported as 2.8. For the same compound, the “General health: difference between active food and placebo food groups” value (test A 200 mg, 4 W) was 0.1, the “Mental health: difference between active food and placebo food groups” value (test A 200 mg, 4 W) was 3.6 and the “Physical function: difference between active food and placebo food groups” value (test A 200 mg, 4 W) was 0.4. For the same compound, the “Social life function: difference between active food and placebo food groups” value (test A 200 mg, 4 W) was 1.1, the “Vitality: difference between active food and placebo food groups” value (test A 200 mg, 4 W) was 5.5 and the “Everyday role function (mental)” value (test A 200 mg, 4 w) was 53.4 ± 6.0. The “Everyday role function (physical)” value (test A 200 mg, 4 w) was 54.3 ± 3.5, the General health (test A 200 mg, 4 w) was 57.2 ± 7.9 and the Mental health (test A 200 mg, 4 w) was 56.0 ± 6.7. The Physical function (test A 200 mg, 4 w) was 53.8 ± 6.2, the Vitality (test A 200 mg, 4 w) was 56.1 ± 7.3 and the “Body pain: difference between active food and placebo food groups” value (test A 200 mg, 8 W) was −2.9. For the same compound, the “Everyday role function (mental): difference between active food and placebo food groups” value (test A 200 mg, 8 W) was 1.1, the “Everyday role function (physical): difference between active food and placebo food groups” value (test A 200 mg, 8 W) was 3.3 and the “General health: difference between active food and placebo food groups” value (test A 200 mg, 8 W) was 2.5. For the same compound, the “Mental health: difference between active food and placebo food groups” value (test A 200 mg, 8 W) was 3.5, the “Physical function: difference between active food and placebo food groups” value (test A 200 mg, 8 W) was −0.7 and the “Social life function: difference between active food and placebo food groups” value (test A 200 mg, 8 W) was 0.9. For the same compound, the “Vitality: difference between active food and placebo food groups” value (test A 200 mg, 8 W) was 4.8, the “Everyday role function (mental)” value (test A 200 mg, 8 w) was 52.7 ± 5.7 and the “Everyday role function (physical)” value (test A 200 mg, 8 w) was 53.8 ± 4.0. It also gave a General health (test A 200 mg, 8 w) of 58.4 ± 7.4, a Mental health (test A 200 mg, 8 w) of 56.3 ± 7.3 and a Physical function (test A 200 mg, 8 w) of 53.8 ± 6.1. The Vitality (test A 200 mg, 8 w) was 55.6 ± 8.3, the “Body pain: difference between active food and placebo food groups” value (test A 200 mg, 12 W) was −0.3 and the “Everyday role function (mental): difference between active food and placebo food groups” value (test A 200 mg, 12 W) was 1.5. The “Everyday role function (physical): difference between active food and placebo food groups” value (test A 200 mg, 12 W) was 2.1, the “General health: difference between active food and placebo food groups” value (test A 200 mg, 12 W) was 0.2 and the “Mental health: difference between active food and placebo food groups” value (test A 200 mg, 12 W) was 3.5. For the same compound, the “Physical function: difference between active food and placebo food groups” value (test A 200 mg, 12 W) was −1.0, the “Social life function: difference between active food and placebo food groups” value (test A 200 mg, 12 W) was −1.1 and the “Vitality: difference between active food and placebo food groups” value (test A 200 mg, 12 W) was 5.4. For the same compound, the “Everyday role function (mental)” value (test A 200 mg, 12 w) was 53.7 ± 5.4, the “Everyday role function (physical)” value (test A 200 mg, 12 w) was 54.2 ± 4.2 and the General health (test A 200 mg, 12 w) was 58.4 ± 6.5. It also gave a Mental health (test A 200 mg, 12 w) of 57.0 ± 5.9, a Physical function (test A 200 mg, 12 w) of 53.6 ± 7.2 and a Vitality (test A 200 mg, 12 w) of 57.1 ± 6.7. For the same compound, the “Body pain: difference between active food and placebo food groups” value [1] was −0.7, the “Everyday role function (mental): difference between active food and placebo food groups” value [1] was −0.1 and the “Everyday role function (physical): difference between active food and placebo food groups” value [1] was 1.3. For the same compound, the “General health: difference between active food and placebo food groups” value [1] was 0.0, the “Mental health: difference between active food and placebo food groups” value [1] was 0.3 and the “Physical function: difference between active food and placebo food groups” value [1] was 0.5. For the same compound, the “Social life function: difference between active food and placebo food groups” value [1] was 2.1, the “Vitality: difference between active food and placebo food groups” value [1] was 2.9 and the “Everyday role function (mental)” value [1] was 52.6 ± 6.3. The “Everyday role function (physical)” value [1] was 54.2 ± 4.3, the General health [1] was 57.4 ± 7.4 and the Mental health [1] was 54.1 ± 8.4. For the same compound, the Physical function [1] was 53.0 ± 6.1, the Vitality [1] was 54.6 ± 7.6 and the “scores regarding everyday role function (physical), GABA group compared to the placebo group” value (test A, after eight weeks of ingestion) was “significant improvement”. For the same compound, the “scores regarding emotional health, GABA group compared to the placebo group” value (test A, after four weeks of ingestion) was “significant improvement”, the “scores regarding energy, GABA group compared to the placebo group” value (test A, at least after four weeks of ingestion) was “significant improvement” and the “Body pain: difference between active food and placebo food groups” value (test B 100 mg, 4 W) was −0.3. For the same compound, the “Everyday role function (mental): difference between active food and placebo food groups” value (test B 100 mg, 4 W) was 1.5, the “Everyday role function (physical): difference between active food and placebo food groups” value (test B 100 mg, 4 W) was 2.3 and the “General health: difference between active food and placebo food groups” value (test B 100 mg, 4 W) was 1.2. For the same compound, the “Mental health: difference between active food and placebo food groups” value (test B 100 mg, 4 W) was 3.3, the “Physical function: difference between active food and placebo food groups” value (test B 100 mg, 4 W) was 1.8 and the “Social life function: difference between active food and placebo food groups” value (test B 100 mg, 4 W) was 0.9. The “Vitality: difference between active food and placebo food groups” value (test B 100 mg, 4 W) was 3.0, the “Everyday role function (mental)” value (test B 100 mg, 4 w) was 53.0 ± 5.5 and the “Everyday role function (physical)” value (test B 100 mg, 4 w) was 53.8 ± 4.2. For the same compound, the General health (test B 100 mg, 4 w) was 58.3 ± 7.4, the Mental health (test B 100 mg, 4 w) was 55.8 ± 5.8 and the Physical function (test B 100 mg, 4 w) was 55.2 ± 3.7. For the same compound, the Vitality (test B 100 mg, 4 w) was 53.7 ± 7.6, the “Body pain: difference between active food and placebo food groups” value (test B 100 mg, 8 W) was 0.9 and the “Everyday role function (mental): difference between active food and placebo food groups” value (test B 100 mg, 8 W) was 2.1. For the same compound, the “Everyday role function (physical): difference between active food and placebo food groups” value (test B 100 mg, 8 W) was 3.4, the “General health: difference between active food and placebo food groups” value (test B 100 mg, 8 W) was 1.2 and the “Mental health: difference between active food and placebo food groups” value (test B 100 mg, 8 W) was 3.3. For the same compound, the “Physical function: difference between active food and placebo food groups” value (test B 100 mg, 8 W) was 2.2, the “Social life function: difference between active food and placebo food groups” value (test B 100 mg, 8 W) was 3.2 and the “Vitality: difference between active food and placebo food groups” value (test B 100 mg, 8 W) was 4.0. The “Everyday role function (mental)” value (test B 100 mg, 8 w) was 53.7 ± 3.9, the “Everyday role function (physical)” value (test B 100 mg, 8 w) was 53.9 ± 3.5 and the General health (test B 100 mg, 8 w) was 57.2 ± 7.5. It also gave a Mental health (test B 100 mg, 8 w) of 56.1 ± 5.8, a Physical function (test B 100 mg, 8 w) of 56.6 ± 2.4 and a Vitality (test B 100 mg, 8 w) of 54.8 ± 7.2. The “Body pain: difference between active food and placebo food groups” value (test B 100 mg, 12 W) was 1.8, the “Everyday role function (mental): difference between active food and placebo food groups” value (test B 100 mg, 12 W) was 1.7 and the “Everyday role function (physical): difference between active food and placebo food groups” value (test B 100 mg, 12 W) was 1.0. The “General health: difference between active food and placebo food groups” value (test B 100 mg, 12 W) was 1.0, the “Mental health: difference between active food and placebo food groups” value (test B 100 mg, 12 W) was 2.9 and the “Physical function: difference between active food and placebo food groups” value (test B 100 mg, 12 W) was 1.3. The “Social life function: difference between active food and placebo food groups” value (test B 100 mg, 12 W) was 0.6, the “Vitality: difference between active food and placebo food groups” value (test B 100 mg, 12 W) was 2.8 and the “Everyday role function (mental)” value (test B 100 mg, 12 w) was 53.9 ± 4.3. The “Everyday role function (physical)” value (test B 100 mg, 12 w) was 53.1 ± 4.2, the General health (test B 100 mg, 12 w) was 59.2 ± 6.2 and the Mental health (test B 100 mg, 12 w) was 56.4 ± 5.6. For the same compound, the Physical function (test B 100 mg, 12 w) was 55.9 ± 3.1, the Vitality (test B 100 mg, 12 w) was 54.5 ± 7.4 and the “Body pain: difference between active food and placebo food groups” value [2] was 1.3. The “Everyday role function (mental): difference between active food and placebo food groups” value [2] was 1.0, the “Everyday role function (physical): difference between active food and placebo food groups” value [2] was 0.7 and the “General health: difference between active food and placebo food groups” value [2] was 0.1. For the same compound, the “Mental health: difference between active food and placebo food groups” value [2] was 2.7, the “Physical function: difference between active food and placebo food groups” value [2] was 3.0 and the “Social life function: difference between active food and placebo food groups” value [2] was 3.7. For the same compound, the “Vitality: difference between active food and placebo food groups” value [2] was 2.7, the “Everyday role function (mental)” value [2] was 53.7 ± 4.7 and the “Everyday role function (physical)” value [2] was 53.5 ± 3.9. It also gave a General health [2] of 57.5 ± 7.1, a Mental health [2] of 56.5 ± 5.4 and a Physical function [2] of 55.6 ± 3.5. The Vitality [2] was 54.4 ± 7.6 and the “scores regarding physical function, GABA group compared to the placebo group” value (test B, after eight weeks of ingestion) was “significant improvement”.
